Reference: patent US20140162875A1, “N-Thio-Anthranilamide Compounds and Their Use as Pesticides” (BASF SE, priority 2011, published 2014)

What was measured:
Format in all cases: in vivo
[1] = tested on: Mediterranean fruitfly (Ceratitis capitata); assay: Mediterranean fruitfly microtiter plate insect diet test; settings: 120 h, egg and larval mortality after 5 days, read-out: mortality in comparison with untreated controls
Experimental: For evaluating control of Mediterranean fruitfly (Ceratitis capitata) the test unit consisted of microtiter plates containing an insect diet and 50-80 C. capitata eggs.
(§1) The compounds were formulated using a solution containing 75% v/v water and 25% v/v DMSO. Different concentrations of formulated compounds were sprayed onto the insect diet at 5 μl, using a custom built micro atomizer, at two replications.
After application, microtiter plates were incubated at about 28±1° C. and about 80±5% relative humidity for 5 days. Egg and larval mortality was then visually assessed.

[2] = tested on: boll weevil (Anthonomus grandis); assay: Boll weevil microtiter plate insect diet test; settings: 120 h, egg and larval mortality after 5 days, read-out: mortality in comparison with untreated controls
Experimental: For evaluating control of boll weevil (Anthonomus grandis) the test unit consisted of 96-well-microtiter plates containing an insect diet and 5-10 A. grandis eggs.
as §1
After application, microtiter plates were incubated at about 25±1° C. and about 75±5% relative humidity for 5 days. Egg and larval mortality was then visually assessed.

[3] = tested on: Southern Armyworm (Spodoptera Eridania); assay: Southern armyworm lima bean plant spray test; settings: 96 h, larvae on sprayed lima bean plants, 4 days after treatment, read-out: mortality in comparison with untreated controls
Experimental: (§2) The active compounds were formulated in cyclohexanone as a 10,000 ppm solution supplied in tubes. The tubes were inserted into an automated electrostatic sprayer equipped with an atomizing nozzle and they served as stock solutions for which lower dilutions were made in 50% acetone:50% water (v/v). A nonionic surfactant (Kinetic®) was included in the solution at a volume of 0.01% (v/v).
(§3) Lima bean plants (variety Sieva) were grown 2 plants to a pot and selected for treatment at the 1st true leaf stage. Test solutions were sprayed onto the foliage by an automated electrostatic plant sprayer equipped with an atomizing spray nozzle. The plants were dried in the sprayer fume hood and then removed from the sprayer. Each pot was placed into perforated plastic bags with a zip closure. About 10 to 11 armyworm larvae were placed into the bag and the bags zipped closed. Test plants were maintained in a growth room at about 25° C. and about 20-40% relative humidity for 4 days, avoiding direct exposure to fluorescent light (24 hour photoperiod) to prevent trapping of heat inside the bags. Mortality and reduced feeding were assessed 4 days after treatment, compared to untreated control plants.

[4] = tested on: Diamond Back Moth (Plutella Xylostella); assay: Diamond back moth cabbage leaf dip test; settings: foliar, dipped cabbage leaves, 3rd instar larvae, 72 hours after treatment, read-out: mortality in comparison with untreated controls
Experimental: (§4) The active compound was dissolved at the desired concentration in a mixture of 1:1 (vol:vol) distilled water:acetone. Surfactant (Alkamuls® EL 620) is added at a rate of 0.1% (vol/vol). The test solution was prepared at the day of use.
Leaves of cabbage were dipped in test solution and air-dried. Treated leaves were placed in petri dishes lined with moist filter paper and inoculated with ten 3rd instar larvae. Mortality was recorded 72 hours after treatment. Feeding damages were also recorded using a scale of 0-100%.

[5] = tested on: Tobacco Budworm (Heliothis Virescens); assay: Tobacco budworm cotton plant spray test; settings: 96 h, larvae on sprayed cotton plants, 4 days after treatment, read-out: mortality in comparison with untreated controls
Experimental: as §2
as §3, with “Cotton” for “Lima bean”, “plants” for “plants (variety Sieva)”, “cotyledon” for “1st true leaf”, “budworm” for “armyworm”

[6] = tested on: Colorado Potato Beetle (Leptinotarsa Decemlineata); assay: Colorado potato beetle eggplant foliage spray test; settings: foliar, 96 h, beetle larvae on sprayed eggplant foliage, 4 days after treatment, read-out: mortality in comparison with untreated controls
Experimental: as §2
Eggplants were grown 2 plants to a pot and were selected for treatment at the 1st true leaf stage. Test solutions were sprayed onto the foliage by an automated electrostatic plant sprayer equipped with an atomizing spray nozzle. The plants were dried in the sprayer fume hood and then removed from the sprayer. The treated foliage was then cut and removed from the pot and placed in a Petri dish lined with moistened filter paper. Five beetle larvae were introduced into each Petri dish and the dish was covered by a Petri dish lid. Petri dishes were maintained in a growth room at about 25° C. and about 20-40% relative humidity for 4 days, avoiding direct exposure to fluorescent light (24 hour photoperiod) to prevent trapping of heat inside the dishes. Mortality and reduced feeding were assessed 4 days after treatment, compared to untreated control plants.

[7] = tested on: Cowpea Aphid (Aphis Craccivora); assay: Cowpea aphid spray test on potted cowpea plants; settings: sprayed cowpea plants, assessed after 72 hours, read-out: mortality in comparison with untreated controls
Experimental: as §4
Potted cowpea plants were colonized with approximately 50-100 aphids of various stages by manually transferring a leaf tissue cut from infested plant 24 hours before application. Plants were sprayed after the pest population has been recorded. Treated plants were maintained on light carts at about 28° C. Percent mortality was assessed after 72 hours.

[8] = tested on: Orchid Thrips (Dichromothrips Corbetti); assay: Orchid thrips floral-immersion test; settings: adult thrips on dipped orchid flowers, 72 hours after treatment, read-out: mortality in comparison with untreated controls
Experimental: Dichromothrips corbetti adults used for bioassay are obtained from a colony maintained continuously under laboratory conditions. For testing purposes, the test compound was diluted in a 1:1 mixture of acetone:water (vol:vol), plus 0.01% vol/vol Alkamuls® EL 620 surfactant.
Thrips potency of each compound was evaluated by using a floral-immersion technique. Plastic petri dishes were used as test arenas. All petals of individual, intact orchid flowers are dipped into treatment solution and allowed to dry. Treated flowers were placed into individual petri dishes along with −about 20 adult thrips. The petri dishes were then covered with lids. All test arenas were held under continuous light and a temperature of about 28° C. for duration of the assay. After 3 days, the numbers of live thrips were counted on each flower, and along inner walls of each petri dish. The percent mortality was recorded 72 hours after treatment.

[9] = tested on: vetch aphid (Megoura viciae); assay: Vetch aphid broad bean leaf disk microtiter test; settings: foliar, 120 h, adult aphids on broad bean leaf disks, 5 days, read-out: mortality in comparison with untreated controls
Experimental: For evaluating control of vetch aphid (Megoura viciae) through contact or systemic means the test unit consisted of 24-well-microtiter plates containing broad bean leaf disks.
The compounds were formulated using a solution containing 75% v/v water and 25% v/v DMSO. Different concentrations of formulated compounds were sprayed onto the leaf disks at 2.5 μl, using a custom built micro atomizer, at two replications.
After application, the leaf disks were air-dried and 5-8 adult aphids placed on the leaf disks inside the microtiter plate wells. The aphids were then allowed to suck on the treated leaf disks and incubated at about 23±1° C. and about 50±5% relative humidity for 5 days. Aphid mortality and fecundity was then visually assessed.

[10] = tested on: Silverleaf Whitefly (Bemisia Argentifolii); assay: Silverleaf whitefly cotton plant spray test; settings: 300 ppm; whitefly adults on sprayed cotton plants; 3 days after treatment
From the text: as §2
Cotton plants at the cotyledon stage (one plant per pot) were sprayed by an automated electrostatic plant sprayer equipped with an atomizing spray nozzle. The plants were dried in the sprayer fume hood and then removed from the sprayer. Each pot was placed into a plastic cup and about 10 to 12 whitefly adults (approximately 3-5 days old) were introduced. The insects were collected using an aspirator and a nontoxic Tygon® tubing connected to a barrier pipette tip. The tip, containing the collected insects, was then gently inserted into the soil containing the treated plant, allowing insects to crawl out of the tip to reach the foliage for feeding. Cups were covered with a reusable screened lid. Test plants were maintained in a growth room at about 25° C. and about 20-40% relative humidity for 3 days, avoiding direct exposure to fluorescent light (24 hour photoperiod) to prevent trapping of heat inside the cup. Mortality was assessed 3 days after treatment, compared to untreated control plants.

| Structure (SMILES) | mortality at 2500 ppm [1] [%] | mortality at 2500 ppm [2] [%] | mortality at 300 ppm [3] [%] | mortality at 300 ppm [4] [%] | mortality at 2500 ppm [5] [%] | mortality at 300 ppm [6] [%] | mortality at 300 ppm [7] [%] | mortality at 300 ppm [8] [%] | mortality at 2500 ppm [9] [%] | mortality in comparison with untreated controls [10] |
| --- | --- | --- | --- | --- | --- | --- | --- | --- | --- | --- |
| Cc1cc(Cl)cc(C(=O)/N=S2/CCSC2)c1NC(=O)c1cnn(CC(F)(F)F)c1-c1ncccc1Cl (stereo not shown) [Compound 1-1, N-[4-chloro-2-((Z)-1,3-dithiolan-1-ylidenecarbamoyl)-6-methyl-phenyl]-5-(3-chloro-2-pyridyl)-1-(2,2,2-trifluoroethyl)pyrazole-4-carboxamide] | ≥ 75 | ≥ 75 | ≥ 75 | ≥ 75 | ≥ 75 | ≥ 75 | ≥ 75 | ≥ 75 | ≥ 75 |  |
| Cc1cc(Cl)cc(C(=O)N=S(C(C)C)C(C)C)c1NC(=O)c1cnn(CC(F)(F)F)c1-c1ncccc1Cl [Compound 1-2] |  |  |  |  |  |  |  |  |  | at least 75% |
